Molecules are shown by their SMILES.

This data set is described as follows: solubility of SCH-530348 in the coating solvent ethanol. The conditions noted are these: stent coating solution. The class given is physicochemical. On the procedure: In the following Example, ethanol is chosen as the solvent of choice. The PAR-1 antagonist is SCH-530348. […] Persons having ordinary skill in the art of polymer chemistry can easily pair the appropriate solvent system to the polymer-drug combination and achieve optimum results with no more than routine experimentation.
250 mg of SCH-530348 is carefully weighed and added to a small neck glass bottle containing 2.8 ml of ethanol. The SCH-530348-ethanol suspension is then thoroughly mixed until a clear solution is achieved.

Take `CCOC(=O)N[C@@H]1CC[C@@H]2[C@@H](C1)C[C@H]1C(=O)O[C@H](C)[C@H]1[C@H]2/C=C/c1ccc(-c2cccc(F)c2)cn1` [SCH-530348]: the solubility in ethanol entry was “freely soluble”.
